Experimental data as given in ChEMBL document CHEMBL3085644, “Structure elucidation and antimalarial activity of apicidin F: an apicidin-like compound produced by Fusarium fujikuroi” (J Nat Prod, 2013).
Where a SMILES comes first, the peptide text is derived from it. [ ]: non-standard residue; d: D form. Trp(1-OMe) = COn1cc(C[C@H](N)C(=O)O)c2ccccc21; Asu = N[C@@H](CCCCCC(=O)O)C(=O)O; dPip = O=C(O)[C@H]1CCCCN1

How the values were obtained:
Plasmodium falciparum [1] = test: Antiplasmodial activity against Plasmodium falciparum NF54 assessed as [3H]-hypoxanthine incorporation after 48 hrs by liquid scintillation counting analysis; assay type: functional, organism-based
Plasmodium falciparum [2] = test: Antiplasmodial activity against chloroquine-resistant Plasmodium falciparum Dd2 assessed as parasite growth inhibition after 48 hrs by light microscopic analysis; assay type: functional, organism-based; settings: Dd2, 48 h

Row | Structure (SMILES) | IC50 (Plasmodium falciparum [1]) [nM] | IC50 (Plasmodium falciparum [2]) [nM]
1 | COn1cc(C[C@@H]2NC(=O)[C@H](CCCCCC(=O)O)NC(=O)[C@H]3CCCCN3C(=O)[C@H](Cc3ccccc3)NC2=O)c2ccccc21 (cyclo([Asu][Trp(1-OMe)]F[dPip])) | 670 | 
2 | CCC(=O)CCCCC[C@@H]1NC(=O)[C@H]2CCCCN2C(=O)[C@H]([C@@H](C)CC)NC(=O)[C@H](Cc2cn(OC)c3ccccc23)NC1=O [APICIDIN] |  | 200
